In patent US20120251496A1, “EZATIOSTAT FOR TREATING MULTIPLE MYELOMA” (Telik, Inc., priority 2011, published 2012):

Tests used:
[1] = test system: relapsed/refractory myeloma patients; settings: thalidomide alone; cited from earlier work
RPMI-8226 = test: multiple myeloma cell proliferation, RPMI-8226; assay type: cell-based; settings: RPMI-8226, Human multiple myeloma
Description: (§1) The effect that ezatiostat has on multiple myeloma proliferation is tabulated below (Table 1).

U266B1 = test: multiple myeloma cell proliferation, U266B1; assay type: cell-based; settings: U266B1, Human multiple myeloma
Description: as §1

[2] = test system: human RPMI8226 multiple myeloma cell; test: combination with melphalan, inhibition of multiple myeloma cell proliferation; assay type: cell-based; settings: added together with melphalan; RPMI8226 cells; FIG. 1
ARH77 = test: multiple myeloma cell proliferation, ARH77; assay type: cell-based; settings: ARH-77, ARH77, Human multiple myeloma
Description: as §1

Structure (SMILES)	partial response rates [1]	IC50 (RPMI-8226) [nM]	IC50 (U266B1) [nM]	synergy with melphalan in inhibiting cell proliferation [2]	IC50 (ARH77) [nM]
O=C1CCC(N2C(=O)c3ccccc3C2=O)C(=O)N1 (centres unmarked) [Thalidomide, thalidomide]	about 30 % of patients	–	–	–	–
CCOC(=O)[C@@H](N)CCC(=O)N[C@@H](CSCc1ccccc1)C(=O)N[C@@H](C(=O)OCC)c1ccccc1 [ezatiostat]	–	33000	860	demonstrated synergy with melphalan	2230
